According to patent US20060148782A1, “Method and medicine for treating a mammal presenting urinary incontinence, urinary urgency, or both” (priority 2003, published 2006):
Counter-ions that a name gives are not always drawn.

Tests used:
[1] = Side effects reported by treated patients
Method: The patient is treated with a total daily dose of medicine, which includes an admixture of 25 mg of imipramine hydrochloride and 275 mg of stool softener (docusate sodium). […] A selective beta-blocker is administered in response to tachycardia on an as-needed basis.

[2] = test system: urinary incontinence and/or urinary urgency; assay: Treatment of patients presenting urinary incontinence and/or urinary urgency (case examples)
Method: The patient stops taking the daily dosages.
The complaints include urinary incontinence and/or urinary urgency (awake and sleeping).
The patient is treated with a total daily dose of medicine, which includes 50 mg of tricyclic antidepressant (imipramine hydrochloride) and 300 mg of stool softener (docusate sodium).
The complaints include chronic urinary incontinence and/or urinary urgency.
The patient is treated with a total daily dose of medicine, which includes 50 mg of imipramine hydrochloride and 350 mg of stool softener (docusate sodium), ingested separately.
The complaints include chronic, intermittent urinary incontinence and urinary urgency.
The patient is treated with a total daily dose of medicine, which includes an admixture of 25 mg of imipramine hydrochloride and 275 mg of stool softener (docusate sodium).

[3] = test system: urinary incontinence; assay: Treatment of a group of cats and dogs presenting urinary incontinence; assay type: in vivo; conditions: admixture of 5 mg/day imipramine hydrochloride and 100 mg stool softener (or by weight), oral, after several days; group of twenty cats and dogs
Excerpt: A group of twenty mammals, including female and male cats and dogs, present with urinary incontinence.

Structure (SMILES)	adverse side effects ([1]; 75 mg/day imipramine pamoate without stool softener, oral)	control of bladder functions noted by patient ([2]; 75 mg/day imipramine pamoate without stool softener, oral, after several days)	recurrence of symptoms after stopping daily dosages ([2]; after about three days without treatment)	reduction or elimination of urinary incontinence [3]	adverse side effects ([1]; 75 mg/day imipramine hydrochloride (25 mg/3 times daily) and a stool softener, oral)	adverse side effects ([1]; admixture of 25 mg/day imipramine hydrochloride and 275 mg docusate sodium, selective beta-blocker given as needed)	control of bladder functions (awake and sleeping) noted by patient ([2]; 50 mg/day imipramine hydrochloride and 300 mg docusate sodium, oral, after several days)	control of bladder functions (awake and sleeping) noted by patient ([2]; 50 mg/day imipramine hydrochloride and 350 mg docusate sodium, ingested separately, oral, after several days)	control of bladder functions (awake and sleeping) noted by patient ([2]; 75 mg/day imipramine hydrochloride (25 mg/3 times daily) and a stool softener, oral, after several days)	control of bladder functions (awake and sleeping) noted by patient ([2]; admixture of 25 mg/day imipramine hydrochloride and 275 mg docusate sodium, oral, after several days)
CN(C)CCCN1c2ccccc2CCc2ccccc21.CN(C)CCCN1c2ccccc2CCc2ccccc21.O=C(O)c1cc2ccccc2c(Cc2c(O)c(C(=O)O)cc3ccccc23)c1O [imipramine pamoate, 5-[3-(dimethylamino)]propyl-10,11-dihydro-5H-dibenzazepine 4,4-methlyenebis-(3-hydroxy-2-napthoate)]	develops constipation	full control of bladder functions	bladder urgency and incontinence recur	–	–	–	–	–	–	–
CN(C)CCCN1c2ccccc2CCc2ccccc21 [imipramine hydrochloride, Imipramine hydrochloride]	–	–	–	reduction or elimination of urinary incontinence for a significant portion of the members of the group	tolerates a dry mouth	tachycardia	full control of bladder functions	partial to full control of bladder functions	partial to full control of bladder functions	partial to full control of bladder functions
